Values quoted from earlier work in US20220016119A1, “METHODS AND TREATMENTS FOR ERECTILE DYSFUNCTION” (Record Buck Farms Medical Cannabis, LLC, priority 2018, published 2022).

Details: doses of up to 1500 mg/day

In the case of `C=C(C)[C@@H]1CCC(C)=C[C@H]1c1c(O)cc(CCCCC)cc1O` [Cannabidiol, cannabidiol], the “adverse effects in patients” value is listed as “no significant adverse effects”.
